{
  "source": "paper doi:10.1101/850305v1",
  "about": "(biorxiv, 2019)",
  "key": {"[1]": {"test_system": "VECO2526 E. coli ΔtolC", "test": "microbe, parasite or virus in culture", "details": "Escherichia coli"}, "[2]": {"test_system": "CDY0154 E. coli Δ9efflux", "test": "microbe, parasite or virus in culture", "details": "Escherichia coli"}, "[3]": {"test_system": "Escherichia coli TUP0115 ΔtolC pLacZα", "test": "microbe, parasite or virus in culture", "details": "read-out: MIC"}, "[4]": {"biological_target": "T1, E. coli LpxA (Escherichia coli, UniProt P0A722)", "T1 sequence (P0A722 1-262)": "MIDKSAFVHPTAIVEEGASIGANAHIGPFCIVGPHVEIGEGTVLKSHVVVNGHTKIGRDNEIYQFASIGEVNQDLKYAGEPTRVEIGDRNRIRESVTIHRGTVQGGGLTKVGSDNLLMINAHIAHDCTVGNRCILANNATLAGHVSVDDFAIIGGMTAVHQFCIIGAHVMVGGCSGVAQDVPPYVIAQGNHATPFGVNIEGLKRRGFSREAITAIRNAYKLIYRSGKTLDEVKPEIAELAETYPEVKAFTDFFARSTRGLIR", "test": "SPR", "assay_type": "binding"}, "[5]": {"biological_target": "T1, E. coli LpxA", "test": "SPE-MS detection of LpxA product", "assay_type": "biochemical"}, "[6]": {"test_system": "ATCC 25922 E. coli clinical isolates", "test": "microbe, parasite or virus in culture", "details": "Escherichia coli"}, "[7]": {"test_system": "MG1655 E. coli K-12", "test": "microbe, parasite or virus in culture", "details": "Escherichia coli"}, "[8]": {"biological_target": "T1, E. coli LpxA", "test": "SPE-MS detection of LpxA product", "assay_type": "biochemical", "remark": "listed apart in the source"}, "[9]": {"biological_target": "T1, E. coli LpxA", "test": "SPR", "assay_type": "binding", "remark": "listed apart in the source"}, "[10]": {"biological_target": "T1, E. coli LpxA", "test": "SPE-MS detection of LpxA product", "assay_type": "biochemical", "remark": "listed apart in the source"}},
  "note": "Read-outs that look alike come from different tables or passages of the source.",
  "data": [
    {"smiles": "C[C@@H](O)[C@H](NC(=O)c1ccc(C#Cc2ccc(CN3CCOCC3)cc2)cc1)C(=O)NO", "note": "[CHIR-090]", "values": [
      {"measurement": "MIC", "setting": "[1]; read-out: MIC CHIR-090", "value": 0.015, "unit": "µg/mL"},
      {"measurement": "MIC", "setting": "[2]; read-out: MIC CHIR-090", "value": 0.075, "unit": "µg/mL"}
    ]},
    {"smiles": "COc1ccc(C(=O)CN2C(=O)NC(c3ccccc3)(c3ccccc3)C2=O)cc1", "note": "[compound 1]", "values": [
      {"measurement": "MIC", "setting": "[1]; read-out: MIC compound 1", "value": 0.5, "unit": "µg/mL"},
      {"measurement": "MIC", "setting": "[2]; read-out: MIC compound 1", "value": 0.5, "unit": "µg/mL"},
      {"measurement": "MIC", "setting": "[3]", "value": 0.5, "unit": "µg/mL"},
      {"measurement": "Kd", "setting": "[4]", "value": 0.1, "unit": "µM"},
      {"measurement": "IC50", "setting": "[5]", "value": 1.4, "unit": "µM"},
      {"measurement": "MIC", "setting": "[6]; ATCC25922, read-out: MIC compound 1", "value": "> 16", "unit": "µg/mL"},
      {"measurement": "MIC", "setting": "[7]; MG1655, read-out: MIC compound 1", "value": "> 16", "unit": "µg/mL"}
    ]},
    {"smiles": "Cc1ccnc(-c2cc(C(=O)N3CCOC[C@H]3Cc3ccccc3)[nH]n2)c1", "note": "[compound 2]", "values": [
      {"measurement": "IC50", "setting": "[8]", "value": 4.8, "unit": "µM"},
      {"measurement": "MIC", "setting": "[1]; read-out: MIC compound 2", "value": 2, "unit": "µg/mL"},
      {"measurement": "MIC", "setting": "[2]; read-out: MIC compound 2", "value": 2, "unit": "µg/mL"},
      {"measurement": "Kd", "setting": "[9]", "value": 110, "unit": "µM"},
      {"measurement": "MIC", "setting": "[6]; ATCC25922, read-out: MIC compound 2", "value": "> 128", "unit": "µg/mL"},
      {"measurement": "MIC", "setting": "[7]; MG1655, read-out: MIC compound 2", "value": "> 128", "unit": "µg/mL"}
    ]},
    {"smiles": "Cc1ccnc(-c2cc(C(=O)N3CCOCC3)[nH]n2)c1", "note": "[compound 3]", "values": [
      {"measurement": "IC50", "setting": "[5]", "value": "> 250", "unit": "µM"}
    ]},
    {"smiles": "Cc1ccnc(-c2cc(C(=O)N3CCOC[C@H]3C(C)C)[nH]n2)c1", "note": "[compound 4]", "values": [
      {"measurement": "IC50", "setting": "[5]", "value": 148, "unit": "µM"}
    ]},
    {"smiles": "Cc1ccnc(-c2cc(C(=O)N3CCOC[C@H]3Cc3ccccn3)[nH]n2)c1", "note": "[compound 5]", "values": [
      {"measurement": "IC50", "setting": "[5]", "value": 86, "unit": "µM"}
    ]},
    {"smiles": "Cc1ccnc(-c2cc(C(=O)N3CCOC[C@H]3Cc3ccccc3F)[nH]n2)c1", "note": "[compound 6]", "values": [
      {"measurement": "IC50", "setting": "[10]", "value": 3, "unit": "µM"}
    ]},
    {"smiles": "Cc1ccnc(-c2cc(C(=O)N3CCOC[C@H]3Cc3ccccc3Cl)[nH]n2)c1", "note": "[compound 7]", "values": [
      {"measurement": "IC50", "setting": "[5]", "value": 2.9, "unit": "µM"}
    ]},
    {"smiles": "COc1ccccc1C[C@@H]1COCCN1C(=O)c1cc(-c2cc(C)ccn2)n[nH]1", "note": "[compound 8]", "values": [
      {"measurement": "IC50", "setting": "[10]", "value": 11, "unit": "µM"}
    ]},
    {"smiles": "COc1cccc(F)c1C[C@@H]1COCCN1C(=O)c1cc(-c2cc(C)ccn2)n[nH]1", "note": "[compound 9]", "values": [
      {"measurement": "IC50", "setting": "[5]", "value": 2.5, "unit": "µM"}
    ]},
    {"smiles": "COc1cccc(Cl)c1C[C@@H]1COCCN1C(=O)c1cc(-c2cc(C)ccn2)n[nH]1", "note": "[compound 11]", "values": [
      {"measurement": "IC50", "setting": "[5]", "value": 0.5, "unit": "µM"}
    ]},
    {"smiles": "Cc1ccnc(-c2cc(C(=O)N3CCOC[C@@H]3Cc3ccccc3)[nH]n2)c1", "note": "[compound 12]", "values": [
      {"measurement": "IC50", "setting": "[5]", "value": 171, "unit": "µM"}
    ]},
    {"smiles": "COc1cccc(Cl)c1C[C@@H]1COCCN1C(=O)c1cc(-c2cc(C)c(N)cn2)n[nH]1", "note": "[compound 13]", "values": [
      {"measurement": "IC50", "setting": "[10]", "value": 0.6, "unit": "µM"}
    ]}
  ]
}
